The nature of series [1]: Determination of CLint in mouse microsomes (microsomal stability). The format is in vitro ADME. The conditions noted are these: female CD-1 mouse microsomes. As to the method: Microsomal stability was assessed on a liquid handling platform (Tecan Freedom EVO-2 200 MCA384, Männedorf, Switzerland) using pooled female CD-1 mouse microsomes. Compounds (1 µM final) were pre-incubated with microsomes (final 0.5 mg/mL) for 5 min at 37 °C in phosphate buffer (50 mM, pH 7.4), which was followed by the start of the incubation by the addition of cofactor NADPH (final 1.5 mM). […] Incubations were carried out in singlicate. Aliquots were taken at time points of 0, 5, 10, 20, and 30 min. Additionally, two control samples (0 and 30 min) lacking the addition of NADPH were included in order to flag compounds with non-microsomal metabolism. After incubation, the samples were quenched by adding sample aliquots from four different compound incubations to a two-fold volume of acetonitrile (ACN) for bioanalytical cocktailing designed to avoid analytical interference. After centrifugation, the supernatants were analyzed by a standard reversed-phase liquid chromatography assay coupled to tandem mass spectrometry (UHPLC-MS/MS) (for details, see the Supplementary Materials).
The data were subjected to post-acquisition analysis by the Analyst software (version 1.7.2), and the percentage of compound remaining (defined as the ratio of the peak area at a given time point and that at the 0 min time point) was plotted against the incubation time. The first-order elimination rate constant (kel) was derived by non-linear regression using Biorails version 5.10.22/Morphit version 8.0 (The Edge Software Consultancy, Guildford, UK), and CLint values (expressed in µL/min/mg) were obtained by normalizing kel with the microsome concentration.

In another series the test system is female CD-1 mouse. In words: IVIVE of mouse clearance from microsomes (well-stirred model, regression correction). To be noted: for Fold obs. / pred. (mic.) CL,b,u - Kilford / in vitro (mic.) pred. CLint,b - Kilford / in vitro (mic.) pred. CLint,b,u - Kilford: Kilford fu,mic. The text has this:
Compounds with phase II metabolism were removed from the microsome set (N = 25). […] The following regression equations were derived for microsomes and hepatocytes, respectively: log predicted CLint = 0.8 * log scaled CLint + 0.6 and log predicted CLint = 0.6 * log scaled CLint + 0.8, with CLint expressed in mL/min/kg.
According to Sohlenius-Sternbeck et al., the following equations were used for IVIVE: scaled CLint,b=in vitro CLint∗microsomes/hepatocytes/gram of liver∗liver weight/body weight∗fu,p/fu,inc∗Rb
The physiological scaling factors, taken from Simcyp^TM version 13/1 (Certara), were 48 mg of microsomal protein per gram of liver (MPPGL), 101.7 × 10^6 hepatocytes per gram of liver (HPGL), a liver weight of 1.46 g, and a body weight of 0.025 kg. For microsomes and hepatocytes, fu,mic and fu,hep, were used as the unbound fraction in the incubation (fu,inc), respectively. predicted CLint,b=10^(log scaled CLint∗slope+intercept)
For microsomes, a slope of 0.8 and an intercept of 0.6 were used, and for hepatocytes, a slope of 0.6 and an intercept of 0.8, according to the regression equations derived above. predicted CL,b=pred. CLint,b∗QH/pred. Clint,b+QH
CLp/Rb observed CLint,b=QH∗obs. CL,b/QH−obs. CL,b
All unbound clearance terms were calculated by dividing the respective clearance by fu,p. predicted/observed CL,b,u=pred./obs. CL,b/fu,p
The above-described approach was applied for the IVIVE of clearance of the data set analyzed in this study. Additionally, in order to evaluate the impact of the Kilford calculations as a surrogate for the experimentally determined free fraction in the in vitro systems, clearance was extrapolated using the Kilford equations [16] using the same regression coefficients.

The nature of a further series: Kinetic solubility. The format is physicochemical. The protocol: The kinetic solubility (KSOL) determination is carried out in a 96-well plate filtration format where the sample (2 μL of sample stock solution 10mM DMSO) is combined to 98 μL of 20 mM buffer phosphate pH 7.4. The filtration plate is then incubated and agitated at 250 rpm for 120 minutes. After stirring, the plate is centrifuged at 2500 rpm for 3 minutes, allowing all solvent to be collected in the lower microplate. Next to avoid pre-cipitation, 50 μL of the filtered solution is diluted with 50 μL of 2% DMSO in pH 7.4 buffer solution to yield a 100 μM sample solution ready for H(U)PLC analytics.
For the standard, each compound is prepared by combining 2 μL of the sample stock solution 10mM DMSO to 198 μL Acetonitrile/Methanol/Eluant A ([…]).
For the evaluation, wavelength with maximum sensitivity is to be selected. The kinetic solubility is determined according to following formulas, whereas S is the targeted value […]
L = area௦௔௠௣௟௘ × concentration௦௧௔௡ௗ௔௥ௗ × dilution factor௦௔௠௣௟௘area௦௧௔௡ௗ௔௥ௗ × dilution factor௦௧௔௡ௗ௔௥ௗ with: L= Concentration of solved compound in buffer [μg/ml] and S= Molar concentra-tion of solved compound in buffer [mol/L]
Chromatographic conditions: Column Waters XBridge Column C8 3.5μm (Waters Cat No 186003053); Column temperature 37°C; Autosampler Room temperature (approx.
25°C); Injection volume 10 μL (HPLC) / 3μL (UPLC); Wavelength 220 nm, 254 nm, 290 nm. Eluant A: 1 mL Formic Acid + 999 mL Ultrapure Water; Eluant B: 1 mL Formic Acid […]
Table S5. Gradient for UHPLC analysis
Time Eluent A (%) Eluent B (%) Flow (ml/min)
Reagents and Materials: Phosphate Buffer 20mM pH 7.4: EMS, Art No. 11601-40; DMSO Merck Art. No. 102950; Acetonitrile Merck, Art. No. 100030, Methanol Merck Art. No.
106007; Formic Acid Merck Art.No.100264; Acetonitrile Merck Art. No.10030; Filtration Plate Millipore MultiScreen HTS HV 0.45uM; 96 Well Millipore Art. No. MSHVN4510; Column Waters XBridge Column C8 3.5μm (Waters Cat. No. 186003053); HPLC vials VWR Cat. No. 5480028; Micro-Inserts VWR Cat. No. 548-0006; Screw caps VWR Cat. No. […]

[2] abbreviates: microsomes, experimental fu,mic.

The structures appear in SMILES notation.

`O=C(O)c1cc(-c2ccc(F)cc2F)ccc1O` [MSC001]: the “Microsome CLint” value in series [1] was determined as 17.8 µL/min/mg. In addition, in the series with female CD-1 mouse (microsomes), the “Fold obs. / pred. (mic.) CL,b,u - Kilford” value is 0.5, the “in vitro (mic.) pred. CLint,b - Kilford” value stood at 5.69 mL/min/kg and the “in vitro (mic.) pred. CLint,b,u - Kilford” value came out at 334.02 mL/min/kg. Besides, in the series on female CD-1 mouse (setting [2]), the “Fold obs. / pred. (mic.) CL,b,u - exp. fu,mic” value was 0.5, the “in vitro (mic.) pred. CLint,b - exp. fu,mic” value was 5.96 mL/min/kg and the “in vitro (mic.) pred. CLint,b,u - exp. fu,mic” value worked out at 349.34 mL/min/kg. In addition, the “Kinetic solubility PBS pH 7.4” value in the series “Kinetic solubility” was above 200 µM.

As for `CNC(=O)c1cc(Oc2ccc3nc(N[C@@H]4CCCC[C@H]4O)sc3c2)ccn1` [MSC003], the “Microsome CLint” value in series [1] is 20.5 µL/min/mg. In addition, in the series with female CD-1 mouse (microsomes), the “Fold obs. / pred. (mic.) CL,b,u - Kilford” value turned out to be 0.528, the “in vitro (mic.) pred. CLint,b - Kilford” value stood at 13.72 mL/min/kg and the “in vitro (mic.) pred. CLint,b,u - Kilford” value was found to be 179.53 mL/min/kg. In the series on female CD-1 mouse (setting [2]), the “Fold obs. / pred. (mic.) CL,b,u - exp. fu,mic” value was found to be 0.5, the “in vitro (mic.) pred. CLint,b - exp. fu,mic” value is 14.24 mL/min/kg and the “in vitro (mic.) pred. CLint,b,u - exp. fu,mic” value amounted to 186.35 mL/min/kg. Moreover, in the series “Kinetic solubility”, the “Kinetic solubility PBS pH 7.4” value stood at 156.7 µM.

With `COc1cccc(OCCCN)c1-c1cc(Nc2cnc(C#N)cn2)n[nH]1` [MSC020], in series [1], the “Microsome CLint” value stood at 165.3 µL/min/mg. In the series on female CD-1 mouse (microsomes), the “Fold obs. / pred. (mic.) CL,b,u - Kilford” value was found to be 1.3, the “in vitro (mic.) pred. CLint,b - Kilford” value was 148.30 mL/min/kg and the “in vitro (mic.) pred. CLint,b,u - Kilford” value is 772.42 mL/min/kg. Besides, in the series on female CD-1 mouse (setting [2]), the “Fold obs. / pred. (mic.) CL,b,u - exp. fu,mic” value is 1.1, the “in vitro (mic.) pred. CLint,b - exp. fu,mic” value is given as 214.87 mL/min/kg and the “in vitro (mic.) pred. CLint,b,u - exp. fu,mic” value is recorded as 1119.12 mL/min/kg. In “Kinetic solubility”, the “Kinetic solubility PBS pH 7.4” value was determined as 165.4 µM.

As to `N#Cc1c[nH]c2c(C(=O)N3CCN(CCc4ccc(F)cc4)CC3)cccc12` [MSC213], the “Microsome CLint” value in series [1] stood at 212.8 µL/min/mg. In the series with female CD-1 mouse (from microsomes), the “in vitro (mic.) pred. CLint,b - Kilford” value stood at 59.38 mL/min/kg and the “in vitro (mic.) pred. CLint,b,u - Kilford” value came out at 1278.61 mL/min/kg. Also, in the series with female CD-1 mouse (from microsomes, exp. fu,mic), the “in vitro (mic.) pred. CLint,b - exp. fu,mic” value is recorded as 127.90 mL/min/kg and the “in vitro (mic.) pred. CLint,b,u - exp. fu,mic” value was 2754.05 mL/min/kg. In addition, the “Fold obs. / pred. (mic.) CL,b,u - Kilford” value in the series with female CD-1 mouse (microsomes) is recorded as 1.7. Further, the “Fold obs. / pred. (mic.) CL,b,u - exp. fu,mic” value with female CD-1 mouse (microsomes, exp. fu,mic) is 1.1. The “Kinetic solubility PBS pH 7.4” value in “Kinetic solubility” is 105.1 µM.

Source of the values: publication PMC12029992, “Beyond-Rule-of-Five Compounds Are Not Different: In Vitro–In Vivo Extrapolation of Female CD-1 Mouse Clearance Based on Merck Healthcare KGaA Compound Set” (Pharmaceuticals, 2025).
